Source: ChEMBL document CHEMBL1129888, “Synthesis and evaluation of halogenated dibenzodiazepines as muscarinic receptor ligands” (Bioorg Med Chem Lett, 1997)

How the values were obtained:
[1] = target: T1, Muscarinic acetylcholine receptor M2 (Homo sapiens, UniProt P08172); assay: Tested in vitro for the binding affinity against muscarinic receptor subtype 2 (M2)
T1 sequence (P08172 whole entry): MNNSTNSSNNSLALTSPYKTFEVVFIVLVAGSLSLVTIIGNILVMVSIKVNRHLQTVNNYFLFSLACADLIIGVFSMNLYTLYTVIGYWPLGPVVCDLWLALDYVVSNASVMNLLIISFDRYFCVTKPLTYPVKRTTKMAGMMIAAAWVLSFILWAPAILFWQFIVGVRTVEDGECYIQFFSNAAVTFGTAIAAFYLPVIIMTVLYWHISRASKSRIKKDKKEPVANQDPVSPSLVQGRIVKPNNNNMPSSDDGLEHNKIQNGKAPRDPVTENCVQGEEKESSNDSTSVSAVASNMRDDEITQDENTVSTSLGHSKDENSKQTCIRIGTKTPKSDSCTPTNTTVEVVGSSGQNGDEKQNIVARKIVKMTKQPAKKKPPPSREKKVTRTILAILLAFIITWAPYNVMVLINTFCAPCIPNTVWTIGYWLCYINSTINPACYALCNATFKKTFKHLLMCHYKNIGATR

[2] = target: T2, Muscarinic acetylcholine receptor M1 (Homo sapiens, UniProt P11229); assay: Tested in vitro for the binding affinity against muscarinic receptor subtype 1 (M1)
T2 sequence (P11229 whole entry): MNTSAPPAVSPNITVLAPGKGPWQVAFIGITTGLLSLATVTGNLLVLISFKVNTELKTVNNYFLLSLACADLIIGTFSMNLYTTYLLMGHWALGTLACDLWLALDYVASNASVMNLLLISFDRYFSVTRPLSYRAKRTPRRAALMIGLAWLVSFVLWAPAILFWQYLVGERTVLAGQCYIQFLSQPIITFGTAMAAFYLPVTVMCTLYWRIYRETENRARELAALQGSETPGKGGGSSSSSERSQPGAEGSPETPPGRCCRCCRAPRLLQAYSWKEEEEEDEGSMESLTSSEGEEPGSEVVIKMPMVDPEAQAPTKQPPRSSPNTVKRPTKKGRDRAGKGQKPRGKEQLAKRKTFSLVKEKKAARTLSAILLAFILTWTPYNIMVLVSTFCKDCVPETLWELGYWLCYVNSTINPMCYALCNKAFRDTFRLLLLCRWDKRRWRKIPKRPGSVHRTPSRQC

[3] = target: Muscarinic acetylcholine receptor M3 (Homo sapiens, UniProt P20309); assay: Tested in vitro for the binding affinity against muscarinic receptor subtype 3 (M3)
Chain of Muscarinic acetylcholine receptor M3 (P20309 whole entry): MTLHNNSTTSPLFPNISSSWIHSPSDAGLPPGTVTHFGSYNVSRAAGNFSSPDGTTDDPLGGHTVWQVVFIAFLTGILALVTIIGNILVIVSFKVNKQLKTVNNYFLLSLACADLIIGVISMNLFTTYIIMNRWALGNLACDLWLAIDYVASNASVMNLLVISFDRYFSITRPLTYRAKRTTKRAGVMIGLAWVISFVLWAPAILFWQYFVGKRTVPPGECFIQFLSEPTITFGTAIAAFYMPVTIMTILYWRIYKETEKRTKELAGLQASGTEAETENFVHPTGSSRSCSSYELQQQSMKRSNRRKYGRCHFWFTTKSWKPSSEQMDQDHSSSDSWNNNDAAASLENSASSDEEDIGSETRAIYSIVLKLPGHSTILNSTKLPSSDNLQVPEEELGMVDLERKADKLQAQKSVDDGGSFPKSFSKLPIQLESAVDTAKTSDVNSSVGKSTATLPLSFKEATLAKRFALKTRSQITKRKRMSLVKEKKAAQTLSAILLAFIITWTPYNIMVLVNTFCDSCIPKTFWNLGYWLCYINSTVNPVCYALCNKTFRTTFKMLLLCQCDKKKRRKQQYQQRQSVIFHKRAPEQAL

Row | Compound | Ki [1] | Ki [2] | Ki [3]
1 | CCNCCCCC1CCN(CC(=O)N2c3ccccc3NC(=O)c3ccccc32)CC1 | 0.00449 µM | 0.00698 µM | –
2 | CCOC(=O)N(CC)CCCCC1CCN(CC(=O)N2c3ccccc3NC(=O)c3ccccc32)CC1 | 0.0371 µM | 0.07 µM | 0.0392 µM

More lines, now with the values ahead:

Row | Ki [1] | Ki [2] | Ki [3] | Compound
3 | 0.032 µM | 0.0594 µM | 0.0464 µM | CCN(CCCCC1CCN(CC(=O)N2c3ccccc3NC(=O)c3ccccc32)CC1)C(=O)c1ccc(F)cc1
4 | 0.0469 µM | 0.129 µM | 0.0791 µM | CCN(CCCCC1CCN(CC(=O)N2c3ccccc3C(=O)N(C(=O)c3ccc(F)cc3)c3ccccc32)CC1)C(=O)c1ccc(F)cc1
5 | 0.111 µM | 0.0671 µM | 0.0335 µM | CCN(CCCCC1CCN(CC(=O)N2c3ccccc3NC(=O)c3ccccc32)CC1)C(=O)c1cccc(I)c1
